# Data as given in patent US20120077705A1, “Methods for Identifying Autophagy Inducing Compounds” (President and Fellows of Harvard College, priority 2007, published 2012).
# Several values for one entry are separate records, joined by “and”; a condition that tells them apart may be missing. Equal entries are not always repeated. Where two headings read alike, the source gives them in different places. Non-standard residues stand in square brackets, D forms with d. Residues, ends and D or L forms follow the SMILES beside them. Nle = CCCC[C@H](N)C(=O)O
# Legend:
# Assay type in all cases: cell-based
# [1] = system: FYVE-RFP; test: High-content analysis of FYVE-RFP fluorescence (PI(3)P level) in H4-FYVE cell line
# Source text: Class III PI(3)K Vps34 is a multifunctional protein. On the one hand, it catalyzes the phosphorylation of PI to generate PI(3)P and is of key importance in the endocytic and autophagosome membrane transport processes. At the same time, a compound formed from Vps34/beclin1 is involved in the regulation of autophagy initiation signaling. Therefore, while the autophagy process is taking place, the level of PtdIns(3)P should not be expected to decrease to a significant extent. A FYVE domain is a protein structure domain composed of approximately 70 amino acid residues and containing a zinc finger protein structure; it can bind specifically with PI(3)P. Generally, PI(3)P recruits proteins containing a FYVE domain in order to bind to the membrane of cellular organelles, and participate in protein trafficking and similar processes.
# H4 cells were transfected with the fusion protein FYVP-red fluorescent protein (FYVE-RFP). After transfection, the cells were screened in order to obtain a suitable H4-FYVE cell line to be used as a screening platform to perform high-volume screening of compounds, which thereby indirectly reflected the effect of the compound on autophagy. Compounds which reduced FYVE-RFP fluorescence intensity were eliminated. In this experiment, change in the intensity, fluorescence and distribution of the protein marker FYVE-RFP recruited by PI(3)P before and after treatment with the potential autophagy inducing compound was assayed by high-content microscopic analysis.
# DMSO was used to dilute, dissolve, and prepare a compound at different concentrations with each concentration repeated three times. A 96-well plate was inoculated with H4-FYVE cells at an appropriate density and treated with the compound for 2, 4, and 8 hours, respectively. […] If a compound affected FYVE expression or distribution, then this would be embodied precisely in the image and in the size and intensity of fluorescent spots and other numerical values.
# [2] = system: GFP-polyQ-HA; test: Degradation of expanded polyglutamine (GFP-polyQ-HA) in transfected H4 cells, anti-HA blot
# Description: Large-scale accumulation of misfolded protein is a prominent feature of many neurodegenerative diseases. For example, the pathogenic mechanism of Huntington's disease is that a large amount of polyglutamine (polyQ) protein accumulates in the neurons and cannot be cleared away. Tests of polyQ elimination and degradation were used in this experiment to further determine the ability if the tested compounds to induce autophagy.
# The compounds selected through screening were dissolved in DMSO and diluted in a stepwise manner in complete culture medium.
# [3] = system: long-lived proteins; test: Degradation of (3H) L-leucine labelled long-lived proteins in H4 cells; details: relative to blank control
# Source text: The process of autophagy is a protein degradation process, which primarily mediates the degradation of cellular organelles and long-lived proteins within the cell. Therefore, in the present experiment the detection of whether a compound promotes the degradation of long-lived proteins within the cell was used as an additional indicator of whether the tested compound induces autophagy.
# DMSO was used to dilute, dissolve, and prepare a compound at different concentrations with each concentration repeated three times. A 96-well plate was inoculated with H4 cells at an appropriate density and treated with the compound for 2, 4, and 24 hours, respectively. […] One day prior to the experiment, cells were inoculated onto a 12-well plate at an appropriate density and cultured under normal conditions (DMEM +10% fetal calf serum). […] Then, a complete medium containing (3H) L-leucine was used to incubate the cells for 24 hours causing the cells to take in isotope-labeled leucine and undertake protein synthesis. After 24 hours, a complete culture medium was substituted and used to incubate the cells for 24 hours to degrade short-lived proteins. After the short-lived proteins had been degraded, a complete culture medium to which the compound had been added was substituted and used to incubate the cells. The radiation intensity of the culture medium was tested at 0, 1, 2, 4, and 24 hours, respectively. At 24 hours, the cells were collected and the intensity of the isotope within the cells was tested, and the percent of long-lived protein degradation relative to the blank control group at different times after the action of the compound was computed. Compounds that increased the degradation of long-lived proteins were selected by means oft-test.
# [4] = system: LC3 II; test: Western blot of LC3 II in H4-LC cells
# Source text: The autophagosome marker LC3 used in the compound-screening platform was subjected to the foregoing processing in the cytosol. Generally when the new LC3 synthesized within the cell was processed, it became cytosolic soluble LC3 I with molecular weight 18 Kd. […] The quantity of LC3 II content reflects to a certain degree the autophagic activity of a cell. Therefore, by assaying the content of LC3 II in the cell by means of the Western blot method, it is possible to further reflect the effect of the compound on autophagy.
# H4-LC cells at an appropriate density were inoculated onto a 6-well plate, which was treated with a compound for 4 hours, after which the cells were collected and lysed. The protein fraction was harvested and SDS-PAGE was performed. Following electrophoresis separation the proteins were transferred to a membrane, and immunoblot analysis was performed. The cytoskeleton protein, actin, was used as an internal control.
# [5] = H4-LC cells, 4 hours, immunoblot, FIG. 1
# [6] = H4 cells transfected with GFP-polyQ-HA, 24 hours, screening concentration and dilutions 1:2.5, 1:5, 1:10, FIG. 2
Structure (SMILES),"Relative fluorescent intensity of FYVE-RFP (%) ([1]; H4-FYVE cells, 2 h)","Relative fluorescent intensity of FYVE-RFP (%) ([1]; H4-FYVE cells, 4 h)","Relative fluorescent intensity of FYVE-RFP (%) ([1]; H4-FYVE cells, 8 h)",further results
CN(C)C[C@H](O)Cn1c2ccc(Br)cc2c2cc(Br)ccc21 (racemic) [Wiskostatin],267.90 ± 6.16%,240.08 ± 4.26%,131.93 ± 11.05%,
CN(CCc1ccc(Cl)c(Cl)c1)CC(O)COc1ccc(NS(C)(=O)=O)cc1 (stereo not shown) [AM 92016],68.06 ± 1.20%,71.97 ± 15.67%,66.35 ± 17.66%,
CCCC[C@@H](C=O)NC(=O)[C@H](CC(C)C)NC(=O)[C@H](CC(C)C)NC(C)=O [Ac-Leu-Leu-Nle-CHO] (Ac-Leu-Leu-[Nle]-aldehyde),72.86 ± 10.18%,84.85 ± 2.83%,88.42 ± 6.29%,
CCCCc1oc2ccccc2c1C(=O)c1cc(I)c(OCCN(CC)CC)c(I)c1.Cl [Amiodarone],,,,"polyQ degradation [2]: increased polyQ degradation; Percent relative degradation of long-lived proteins (%) ([3]; 1 h): 101.32 ± 5.95%; Percent relative degradation of long-lived proteins (%) ([3]; 2 h): 122.42 ± 9.71%; Percent relative degradation of long-lived proteins (%) ([3]; 4 h): 110.75 ± 3.68%; Percent relative degradation of long-lived proteins (%) ([3]; 24 h): 116.73 ± 5.54%; Increase of endogenous LC3 II / LC3 II/LC3 I percentage [4, 5]: increase of endogenous LC3 II; Relative fluorescent intensity of FYVE-RFP (%) [1]: 92.50 ± 5.51% and 89.23 ± 3.47% and 83.45 ± 3.64%"
COC(=O)C1=C(C)NC(C)=C([N+](=O)[O-])C1c1ccccc1C(F)(F)F (stereo not shown) [Bay K-8644],110.18 ± 25.18%,57.79 ± 3.76%,79.70 ± 7.28%,
CCCNC(=O)[C@H]1O[C@@H]1C(=O)N[C@H](C(=O)N1CCC[C@H]1C(=O)OC)[C@@H](C)CC [CA-074-Me],65.94 ± 12.73%,79.82 ± 4.66%,86.43 ± 4.15%,
O=C(/C=C/c1ccc(O)c(O)c1)OCCc1ccccc1 [CAPE],86.89 ± 20.98%,71.17 ± 18.70%,69.14 ± 4.32%,
CN1CCN(C2=Nc3cc(Cl)ccc3Nc3ccccc32)CC1 [Clozapine],64.04 ± 2.94%,74.79 ± 13.43%,78.38 ± 1.35%,
CC1=C2C[C@H]3[C@@H](CC=C4C[C@@H](O)CC[C@@]43C)[C@@H]2CC[C@]12O[C@@H]1C[C@H](C)CN[C@H]1[C@H]2C [Cyclopamine],108.75 ± 12.44%,75.21 ± 1.18%,96.38 ± 5.12%,
COC(=O)c1c(C)[nH]c(C)c1C(=O)c1ccccc1Cc1ccccc1 [FPL-64176],99.43 ± 9.62%,78.17 ± 1.90%,87.62 ± 2.42%,
O=C1NCN(c2ccccc2)C12CCN(CCCC(c1ccc(F)cc1)c1ccc(F)cc1)CC2 [Fluspirilene],,,,"polyQ degradation [2, 6]: increased polyQ degradation"
COC(=O)[C@@]1(O)C[C@H]2O[C@]1(C)n1c3ccccc3c3c4c(c5c6ccccc6n2c5c31)C(=O)NC4 [K252A],76.86 ± 6.51%,65.58 ± 9.36%,70.33 ± 5.89%,
CN(C)C(=O)C(CCN1CCC(O)(c2ccc(Cl)cc2)CC1)(c1ccccc1)c1ccccc1.Cl [Loperamide],,,,Increase of endogenous LC3 II / LC3 II/LC3 I percentage [4]: increase of endogenous LC3 II
CC[C@H](C)[C@H](NS(=O)(=O)c1ccc2ccccc2c1)C(=O)N[C@H](C=O)Cc1c[nH]c2ccccc12 [NapSul-Ile-Trp-CHO],89.37 ± 3.52%,64.10 ± 11.47%,62.34 ± 8.21%,
COC(=O)C1=C(C)NC(C)=C(C(=O)OCCN(C)Cc2ccccc2)C1c1cccc([N+](=O)[O-])c1.Cl (stereo not shown) [Nicardipine],132.05 ± 19.93%,112.51 ± 10.09%,104.77 ± 31.63%,"polyQ degradation [2, 6]: increased polyQ degradation; Percent relative degradation of long-lived proteins (%) ([3]; 1 h): 84.62 ± 4.48%; Percent relative degradation of long-lived proteins (%) ([3]; 2 h): 126.59 ± 3.83%; Percent relative degradation of long-lived proteins (%) ([3]; 4 h): 122.60 ± 7.70%; Percent relative degradation of long-lived proteins (%) ([3]; 24 h): 121.03 ± 13.43%; Increase of endogenous LC3 II / LC3 II/LC3 I percentage [4, 5]: increase of endogenous LC3 II"
CO[C@@H]1C[C@@H](C[C@H]2CC[C@H](C)[C@H]([C@@H](C)C(=O)O)O2)O[C@]2(O[C@](C)([C@H]3CC[C@@](C)([C@@H]4O[C@@H]([C@H]5O[C@@](O)(CO)[C@H](C)C[C@@H]5C)C[C@@H]4C)O3)C[C@H]2C)[C@@H]1C [Nigericin],148.43 ± 5.17%,145.40 ± 8.39%,140.54 ± 18.21%,
CC(C)(O)[C@H]1O[C@H]2CC[C@@]3(C)[C@@](O)(CC[C@H]4Cc5c([nH]c6ccccc56)[C@@]43C)C2=CC1=O [Paxilline],100.56 ± 0.58%,52.37 ± 1.65%,56.82 ± 4.44%,
CCCNCC(O)COc1ccccc1C(=O)CCc1ccccc1 (stereo not shown) [Propafenone],114.69 ± 8.90%,78.75 ± 18.93%,62.87 ± 3.38%,
C=C[C@H]1C[N@@]2CC[C@H]1C[C@H]2[C@H](O)c1ccnc2ccc(OC)cc12 [Quinine],70.35 ± 10.23%,78.03 ± 6.33%,60.70 ± 6.59%,
CO[C@H]1C[C@@H]2CC[C@@H](C)[C@@](O)(O2)C(=O)C(=O)N2CCCC[C@H]2C(=O)O[C@H]([C@H](C)C[C@@H]2CC[C@@H](O)[C@H](OC)C2)CC(=O)[C@H](C)/C=C(\C)[C@@H](O)[C@@H](OC)C(=O)[C@H](C)C[C@H](C)/C=C/C=C/C=C/1C [Rapamycin],,131.41 ± 26.64%,,
N#Cc1cc2c(OCC(O)CN3CCN(C(c4ccccc4)c4ccccc4)CC3)cccc2[nH]1 (stereo not shown) [SDZ-201106],65.87 ± 4.72%,59.79 ± 2.38%,72.40 ± 20.27%,
CCN(CC)CCCCCCCCOC(=O)c1cc(OC)c(OC)c(OC)c1 [TMB-8],89.59 ± 4.79%,74.72 ± 13.74%,78.64 ± 10.26%,
CC/C(=C(\c1ccccc1)c1ccc(OCCN(C)C)cc1)c1ccccc1 [Tamoxifen],77.66 ± 4.43%,71.55 ± 0.73%,85.37 ± 7.59%,
